Test system: P388/0 cell lines
Assay: Cytotoxicity assay, growth inhibition of P388/0 cells (Alamar Blue)
Format: cell-based
Settings: 3 days incubation at 37° C., drug concentration inhibiting growth of cells by 50%
Experimental: Cell Lines and Cytotoxicity Assays. Studies using P388/0 cell lines for IC50 (drug concentration inhibiting growth of cells by 50%) were maintained and conducted using standard procedures. Briefly, for IC50 determination, cells were seeded into the microwell plates at a density of 2×10^3 cells per 50 μL per well. Plates were incubated at 37° C. in a humidified incubator with 5% CO2 for 3 days. Cell growth was measured by the addition of 10 μL/well of Alamar Blue (Alamar Biosciences, Inc., Sacramento, Calif.) and the plates were incubated a further 4 hours at 37° C. The IC50 values for each compound were determined from absorbance versus dilution factor plots. All cell cultures for animal implantation were maintained at 37° C. in a humidified atmosphere of 5% CO2/[…] and subcultured once a week. All cell lines were periodically tested for Mycoplasma and were Mycoplasma free.

Nc1ccn([C@@H]2O[C@H](CO)[C@@H](O)[C@@H]2O)c(=O)n1 [Ara-C, ara-C]
IC50: 10 nM

Source: patent US6756037B2, “Polymer conjugates of biologically active agents and extension moieties for facilitating conjugation of biologically active agents to polymeric terminal groups” (Enzon, Inc., priority 2000, dated 2004)
